Measurements taken from patent US4479951A, “1.4;3.6-Dianhydrohexitol nitrates substituted by purine bases, processes for their preparation and pharmaceutical compositions” (Dr. Willmar Schwabe GmbH & Co., priority 1980, dated 1984).

Test system: mongrel dogs
Test: circulatory-pharmacological effectiveness on the narcotised dog, intravenous administration
Assay type: in vivo

Question: How did the “APdiast: diastolic aorta pressure” value (40 min after i.v. 1 mg/kg) turn out when Nc1ncnc2c1ncn2[C@H]1CO[C@H]2[C@@H]1OC[C@@H]2O[N+](=O)[O-] [1c/2c, 5-(9-Adenyl)-5-desoxy-1.4;3.6-dianhydro-L-iditol 2-nitrate] was run?
Answer: 81.0 mm.Hg

Question: And the “APsyst: systolic aorta pressure” value (40 min after i.v. 1 mg/kg)?
Answer: 126.6 mm.Hg

Question: What about the “BFFem: blood flow in the A. femoralis, referred to 20 kg. body weight” value (from here on “BFFem: blood flow in the A. femoralis”) (40 min after i.v. 1 mg/kg) of the same compound?
Answer: 46.3 mL/min

Question: What about the “HF: heart frequency” value (40 min after i.v. 1 mg/kg) of the same compound?
Answer: 120.7 min⁻¹

Question: And the “HLL: heart capacity left, referred to 20 kg. body weight” value (“HLL: heart capacity left, referred” for short) (40 min after i.v. 1 mg/kg)?
Answer: 0.76 W

Question: And the “HLR: heart capacity right, referred to 20 kg. body weight” value (“HLR: heart capacity right, referred” below) (40 min after i.v. 1 mg/kg)?
Answer: 89.3 mW

Question: What about the HZV: heart minute volume, referred to 20 kg. body weight (40 min after i.v. 1 mg/kg) of the same compound?
Answer: 3.72 L/min

Question: What about the “LVEDP: end diastolic pressure in the left ventricle” value (“LVEDP: end diastolic pressure” below) (40 min after i.v. 1 mg/kg) of the same compound?
Answer: 4.41 mm.Hg

Question: And the “PAP: average pressure in the A. pulmonalis” value (from here on “PAP: average pressure”) (40 min after i.v. 1 mg/kg)?
Answer: 14.1 ±1.8 mm.Hg

Question: And the “PRA: pressure in the right atrium” value (40 min after i.v. 1 mg/kg)?
Answer: 3.37 mm.Hg

Question: And the “SV: beat volume, referred to 20 kg. body weight” value (from here on “SV: beat volume, referred”) (40 min after i.v. 1 mg/kg)?
Answer: 32.7 mL

Question: What about the “WAP: pulmonalis resistance, referred to 20 kg. body weight” value (shortened to “WAP: pulmonalis resistance, referred”) (40 min after i.v. 1 mg/kg) of the same compound?
Answer: 0.35 U

Question: And the “WFem: femoralis resistance, referred to 20 kg. body weight” value (shortened to “WFem: femoralis resistance, referred”) (40 min after i.v. 1 mg/kg)?
Answer: 0.27 KU

Question: And the “WTP: total peripheral resistance, referred to 20 kg. body weight” value (shortened to “WTP: total peripheral resistance”) (40 min after i.v. 1 mg/kg)?
Answer: 3.34 U

Question: And the “dp/dt: rate of pressure increase in the left ventricle” value (“dp/dt: rate of pressure increase” for short) (40 min after i.v. 1 mg/kg)?
Answer: 2137.5 mm.Hg/sec.

Question: And the “APdiast: diastolic aorta pressure” value (50 min after i.v. 1 mg/kg)?
Answer: 83.4 mm.Hg

Question: What about the “APsyst: systolic aorta pressure” value (50 min after i.v. 1 mg/kg) of the same compound?
Answer: 131.2 mm.Hg

Question: And the “BFFem: blood flow in the A. femoralis” value (50 min after i.v. 1 mg/kg)?
Answer: 50.6 mL/min

Question: And the “HF: heart frequency” value (50 min after i.v. 1 mg/kg)?
Answer: 118.7 min⁻¹

Question: What about the “HLL: heart capacity left, referred” value (50 min after i.v. 1 mg/kg) of the same compound?
Answer: 0.75 W

Question: What about the “HLR: heart capacity right, referred” value (50 min after i.v. 1 mg/kg) of the same compound?
Answer: 83.6 mW

Question: And the HZV: heart minute volume, referred to 20 kg. body weight (50 min after i.v. 1 mg/kg)?
Answer: 3.55 L/min

Question: What about the “LVEDP: end diastolic pressure” value (50 min after i.v. 1 mg/kg) of the same compound?
Answer: 4.69 mm.Hg

Question: What about the “PAP: average pressure” value (50 min after i.v. 1 mg/kg) of the same compound?
Answer: 13.9 ±1.9 mm.Hg

Question: And the “PRA: pressure in the right atrium” value (50 min after i.v. 1 mg/kg)?
Answer: 3.43 mm.Hg

Question: And the “SV: beat volume, referred” value (50 min after i.v. 1 mg/kg)?
Answer: 32.0 mL

Question: And the “WAP: pulmonalis resistance, referred” value (50 min after i.v. 1 mg/kg)?
Answer: 0.34 U

Question: And the “WFem: femoralis resistance, referred” value (50 min after i.v. 1 mg/kg)?
Answer: 0.26 KU

Question: What about the “WTP: total peripheral resistance” value (50 min after i.v. 1 mg/kg) of the same compound?
Answer: 3.61 U

Question: And the “dp/dt: rate of pressure increase” value (50 min after i.v. 1 mg/kg)?
Answer: 2118.5 mm.Hg/sec.

Question: What about the “APdiast: diastolic aorta pressure” value (60 min after i.v. 1 mg/kg) of the same compound?
Answer: 87.6 mm.Hg

Question: And the “APsyst: systolic aorta pressure” value (60 min after i.v. 1 mg/kg)?
Answer: 133.1 mm.Hg

Question: And the “BFFem: blood flow in the A. femoralis” value (60 min after i.v. 1 mg/kg)?
Answer: 50.4 mL/min

Question: What about the “HF: heart frequency” value (60 min after i.v. 1 mg/kg) of the same compound?
Answer: 114.2 min⁻¹

Question: What about the “HLL: heart capacity left, referred” value (60 min after i.v. 1 mg/kg) of the same compound?
Answer: 0.79 W

Question: What about the “HLR: heart capacity right, referred” value (60 min after i.v. 1 mg/kg) of the same compound?
Answer: 89.5 mW

Question: What about the HZV: heart minute volume, referred to 20 kg. body weight (60 min after i.v. 1 mg/kg) of the same compound?
Answer: 3.73 L/min

Question: What about the “LVEDP: end diastolic pressure” value (60 min after i.v. 1 mg/kg) of the same compound?
Answer: 4.78 mm.Hg

Question: And the “PAP: average pressure” value (60 min after i.v. 1 mg/kg)?
Answer: 14.1 ±2.0 mm.Hg

Question: What about the “PRA: pressure in the right atrium” value (60 min after i.v. 1 mg/kg) of the same compound?
Answer: 3.37 mm.Hg

Question: What about the “SV: beat volume, referred” value (60 min after i.v. 1 mg/kg) of the same compound?
Answer: 35.6 mL

Question: And the “WAP: pulmonalis resistance, referred” value (60 min after i.v. 1 mg/kg)?
Answer: 0.33 U

Question: What about the “WFem: femoralis resistance, referred” value (60 min after i.v. 1 mg/kg) of the same compound?
Answer: 0.26 KU

Question: And the “WTP: total peripheral resistance” value (60 min after i.v. 1 mg/kg)?
Answer: 3.46 U

Question: What about the “dp/dt: rate of pressure increase” value (60 min after i.v. 1 mg/kg) of the same compound?
Answer: 2118.5 mm.Hg/sec.

Question: What about the “APdiast: diastolic aorta pressure” value (90 min after i.v. 1 mg/kg) of the same compound?
Answer: 87.6 mm.Hg

Question: And the “APsyst: systolic aorta pressure” value (90 min after i.v. 1 mg/kg)?
Answer: 136.9 mm.Hg

Question: What about the “BFFem: blood flow in the A. femoralis” value (90 min after i.v. 1 mg/kg) of the same compound?
Answer: 50.8 mL/min

Question: What about the “HF: heart frequency” value (90 min after i.v. 1 mg/kg) of the same compound?
Answer: 107.5 min⁻¹

Question: And the “HLL: heart capacity left, referred” value (90 min after i.v. 1 mg/kg)?
Answer: 0.82 W

Question: And the “HLR: heart capacity right, referred” value (90 min after i.v. 1 mg/kg)?
Answer: 91.5 mW

Question: And the HZV: heart minute volume, referred to 20 kg. body weight (90 min after i.v. 1 mg/kg)?
Answer: 3.77 L/min

Question: What about the “LVEDP: end diastolic pressure” value (90 min after i.v. 1 mg/kg) of the same compound?
Answer: 5.25 mm.Hg

Question: What about the “PAP: average pressure” value (90 min after i.v. 1 mg/kg) of the same compound?
Answer: 14.5 ±2.1 mm.Hg

Question: What about the “PRA: pressure in the right atrium” value (90 min after i.v. 1 mg/kg) of the same compound?
Answer: 3.85 mm.Hg

Question: And the “SV: beat volume, referred” value (90 min after i.v. 1 mg/kg)?
Answer: 37.1 mL

Question: What about the “WAP: pulmonalis resistance, referred” value (90 min after i.v. 1 mg/kg) of the same compound?
Answer: 0.32 U

Question: What about the “WFem: femoralis resistance, referred” value (90 min after i.v. 1 mg/kg) of the same compound?
Answer: 0.27 KU

Question: And the “WTP: total peripheral resistance” value (90 min after i.v. 1 mg/kg)?
Answer: 3.59 U

Question: What about the “dp/dt: rate of pressure increase” value (90 min after i.v. 1 mg/kg) of the same compound?
Answer: 2081.2 mm.Hg/sec.
